Biological target: T1, human recombinant monoacylglycerol lipase (MAGL) (Homo sapiens, UniProt Q99685)
T1 construct: gene MGLL
T1 sequence (Q99685 1-303): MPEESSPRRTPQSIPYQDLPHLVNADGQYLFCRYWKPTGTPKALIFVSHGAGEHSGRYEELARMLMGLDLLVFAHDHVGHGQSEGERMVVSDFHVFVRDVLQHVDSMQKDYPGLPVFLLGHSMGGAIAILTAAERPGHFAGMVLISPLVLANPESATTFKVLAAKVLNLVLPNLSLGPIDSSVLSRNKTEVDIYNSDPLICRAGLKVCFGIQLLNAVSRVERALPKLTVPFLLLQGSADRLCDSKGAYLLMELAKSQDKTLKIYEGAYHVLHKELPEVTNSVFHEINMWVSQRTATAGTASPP
Experiment: colorimetric MAGL inhibitor screening kit (Cayman), 4-nitrophenyl acetate hydrolysis at […] nm; […] inhibition at […] at […] min, […] at […] min; inhibition falls with concentration
Assay type: biochemical

CC(C)=CCC[C@](C)(O[C@@H]1O[C@H](CO)[C@@H](O)[C@H](O)[C@H]1O)[C@H]1CC[C@]2(C)[C@@H]1[C@H](O)C[C@@H]1[C@@]3(C)CC[C@H](O)C(C)(C)[C@@H]3[C@@H](O[C@@H]3O[C@H](CO)[C@@H](O)[C@H](O)[C@H]3O[C@@H]3OC[C@@H](O)[C@H](O)[C@H]3O)C[C@]12C [NGR1, Notoginsenoside R1]
inhibition at 1 µM: 41%
